Test results as given in publication PMC6505672, “Conformational change of Sos-derived proline-rich peptide upon binding Grb2 N-terminal SH3 domain probed by NMR” (Scientific Reports, 2013).
Values joined by “and” are separate entries in the source; they are usually repeats but may differ in a detail not shown here. Equal values may be shown once.

Experiments:
[1] = 13Cα CPMG relaxation dispersion of free VPP peptide (Grb2 nSH3 absent); assay type: physicochemical; details: 25°C
Experimental: The global exchange parameters of the exchange rate, kex; the fractional population of the minor state, Pb were calculated from the dispersion curves of Val5 and Arg8. Then, the chemical shift difference between two states, Δω; the target function of fitting error, χ^2; and the nonexchangeable contribution of R2,eff, R2,0 for each residue were calculated using the global exchange parameters based on a two-state exchange model. […] The kex values were slightly larger than the Δω values, indicating a fast or intermediate exchange process on the chemical shift time scale. The exchange rate kex is defined as kex = kon[P] + koff, where [P] is the concentration of the protein. […]
Two-dimensional ^1H-^13C correlated spectra were collected as series of data sets with CPMG frequencies (νCPMG) of 30, 60, 120, 180, 300, 450, and 600 Hz. […] Spectra were recorded as 62 × 600 complex points with a 2.6-s repetition delay and 32 scans for each increment. […]
Peak intensities of the ^13Cα relaxation dispersion data were quantified using the Sparky program. The transverse relaxation constant, R2,eff, for each νCPMG frequency was calculated as R2,eff = −ln(I(νCPMG)/I0)/Trelax, where I(νCPMG) is the peak intensity obtained for a given value of νCPMG and I0 is the peak intensity obtained when the CPMG block is omitted. […]

[2] = target: T1, Grb2 N-terminal SH3 (nSH3) domain (Homo sapiens, UniProt P62993); experiment: Minor (cis Xaa-Pro) peaks in 1H-13Cα HSQC, Grb2 nSH3-bound state; assay type: physicochemical; details: PBS in 2H2O, 25°C
T1 construct: The plasmid to express the Grb2 nSH3 domain (residues 1–57) was constructed by using a pGEX-6P expression vector; GST (N, cleaved yes); made in house; host or cells: E. coli BL21 (DE3)
T1 sequence (P62993 1-57): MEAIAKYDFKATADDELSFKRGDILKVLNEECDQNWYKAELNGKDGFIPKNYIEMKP
Experimental: The relative intensities of the minor peaks with respect to the major peaks for these residues were 10% for Val1, 3% for Pro2, 14% for Pro4, 10% for Val5, and 6% for Pro6.
The buffer system for NMR experiments was PBS in ^2H2O. […] Data were processed using the NMRPipe/NMRDraw software package. Peak picking and spectral analysis were performed using the Sparky program. Conformational analyses based on chemical shifts were conducted using the Random Coil Index (RCI) program[19] on the web server (http://randomcoilindex.com/).

[3] = design: method as in earlier work; details: free state, cited from earlier work
[4] = target: T1, Grb2 N-terminal SH3 (nSH3) domain; experiment: 13Cα CPMG relaxation dispersion of VPP peptide with Grb2 nSH3; assay type: binding
Experimental: Non-labelled VPP (10 mM) peptide mixed with 0.25 mM Grb2 nSH3 dissolved in ^2H2O solvent was subjected to ^13Cα relaxation dispersion experiments.
The global exchange parameters of the exchange rate, kex; the fractional population of the minor state, Pb were calculated from the dispersion curves of Val5 and Arg8. Then, the chemical shift difference between two states, Δω; the target function of fitting error, χ^2; and the nonexchangeable contribution of R2,eff, R2,0 for each residue were calculated using the global exchange parameters based on a two-state exchange model. […] The exchange rate kex is defined as kex = kon[P] + koff, where [P] is the concentration of the protein. In this experimental condition, [P] is assumed to be zero because the concentration of the ligand is much higher than that of the protein. Thus, kex = koff. The affinity of the ligand to the protein, i.e., Kd, is defined as Kd = koff/kon. If kon is diffusion-controlled, kon ~ 10^8 M^−1s^−1. […] However, as reported by Lundström et al. Cα and Cβ atoms of valine are simultaneously incorporated to the final products from [^13C-2]-glucose as a sole carbon source by using an E.coli expression system. Thus, isolated ^13Cα-selective labelled valine residues cannot be prepared for this experimental purpose.
Two-dimensional ^1H-^13C correlated spectra were collected as series of data sets with CPMG frequencies (νCPMG) of 30, 60, 120, 180, 300, 450, and 600 Hz. The constant-time relaxation delay Trelax was set to 66.7 ms. Spectra were recorded as 62 × 600 complex points with a 2.6-s repetition delay and 32 scans for each increment. The total experimental time was 24 h for both 600 and 500 MHz spectrometers.
Peak intensities of the ^13Cα relaxation dispersion data were quantified using the Sparky program. The transverse relaxation constant, R2,eff, for each νCPMG frequency was calculated as R2,eff = −ln(I(νCPMG)/I0)/Trelax, where I(νCPMG) is the peak intensity obtained for a given value of νCPMG and I0 is the peak intensity obtained when the CPMG block is omitted. The CPMG dispersion curves were fitted numerically as a two-state exchange model using an in-house program described elsewhere. The fitting calculation extracted the following terms as the global parameters: the exchange rate, kex; the fractional population of the minor state, Pb; and the residue specific parameters, including the magnitude of the chemical shift difference between two states, Δω; the target function of fitting error, χ^2; and the nonexchangeable contribution of R2,eff, R2,0.

Grb2 nSH3 = details: single alanine substitution, ITC; cited from earlier work
[5] = target: Sos-derived VPP peptide (Homo sapiens) (UniProt Q07889); details: cited from earlier work

Sequence of Grb2 nSH3 (from UniProt P62993) (P62993 1-58): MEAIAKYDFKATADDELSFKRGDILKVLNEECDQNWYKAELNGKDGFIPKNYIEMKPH

Row | Molecule | relaxation dispersion curves [1] | minor (cis) peaks in bound state [2] | PPII helix structure ([3]; NMR and circular dichroism) | minor (cis) conformation [3] [%] | population of the minor state (Pb), in percent ([4]; 10 mM peptide, 0.25 mM Grb2 nSH3, 25°C, bound population expected from sample 2.5%) | exchange rate, kex ([4]; global fit of Val5 and Arg8, two-state exchange model, 10 mM VPP peptide, 0.25 mM Grb2 nSH3, PBS in 2H2O, 25°C, 11.7 and 14.1 T, kex = koff assumed) [s⁻¹] | fractional population of the minor state, Pb ([4]; global fit of Val5 and Arg8, two-state model, 10 mM peptide, 0.25 mM Grb2 nSH3, 25°C, as fraction) | significant relaxation dispersion ([4]; presence of Grb2 nSH3, 11.7 and 14.1 T, 25°C) | Δω ([4]; range over all residues, 13Cα, relaxation dispersion) | Δω ([4]; residue P3, 13Cα shift difference between two states from relaxation dispersion fit, 25°C) [ppm] | Δω ([4]; residue R8, 13Cα shift difference between two states from relaxation dispersion fit, 25°C) | Δω ([4]; residue R9, 13Cα shift difference between two states from relaxation dispersion fit, 25°C) [ppm] | Δω ([4]; residue R10, 13Cα shift difference between two states from relaxation dispersion fit, 25°C) [ppm] | Δω ([4]; residue V5, 13Cα shift difference between two states from relaxation dispersion fit, 25°C) | Δω ([4]; residues P4/P7 (overlapped), 13Cα shift difference between two states from relaxation dispersion fit, 25°C) [ppm] | residues critical for interaction with Grb2 nSH3 (Grb2 nSH3) | Kd [5] [µM]
1 | CC(C)C[C@H](NC(=O)[C@@H]1CCCN1C(=O)CN)C(=O)NCC(=O)N[C@@H](CO)C(=O)N[C@H](C(=O)N1CCC[C@H]1C(=O)N1CCC[C@H]1C(=O)N1CCC[C@H]1C(=O)N[C@H](C(=O)N1CCC[C@H]1C(=O)N1CCC[C@H]1C(=O)N[C@@H](CCCNC(=N)N)C(=O)N[C@@H](CCCNC(=N)N)C(=O)N[C@@H](CCCNC(=N)N)C(=O)O)C(C)C)C(C)C [VPP peptide] | the dispersion curves were flat | lack of minor peaks in the bound state | ~ 60% | 9 | ~ 2.6% | 1037.87 | 0.026 | Significant dispersion was only observed for Val5 and Arg8 and not for the other residues | 0–1.5 ppm | 0.09 ± 0.18 | 1.53 ppm and 1.53 ± 0.42 ppm | 0.23 ± 0.20 | 0.13 ± 0.17 | 1.47 ppm and 1.47 ± 0.52 ppm | 0.00 ± 0.16 | Pro3, Val5, Pro6, and Arg8 of the VPP peptide are critical for interaction with Grb2 nSH3 | –
2 | Grb2 nSH3 (from UniProt P62993) | – | – | – | – | – | – | – | – | – | – | – | – | – | – | – | – | 3.5
